In patent EP4227307A1 (Genzyme Corporation, priority 2022, dated 2023):
Where a name gives a salt, the structure may show the parent alone.

Target: T1, human recombinant 6His-Nterm SHP2 full-length (Thr2-Arg593) (Homo sapiens, UniProt Q06124)
T1 construct: 6His-Nterm SHP2 full-length (Thr2-Arg593, R&D system); 6His (N); purchased R&D system
T1 sequence (Q06124 2-593): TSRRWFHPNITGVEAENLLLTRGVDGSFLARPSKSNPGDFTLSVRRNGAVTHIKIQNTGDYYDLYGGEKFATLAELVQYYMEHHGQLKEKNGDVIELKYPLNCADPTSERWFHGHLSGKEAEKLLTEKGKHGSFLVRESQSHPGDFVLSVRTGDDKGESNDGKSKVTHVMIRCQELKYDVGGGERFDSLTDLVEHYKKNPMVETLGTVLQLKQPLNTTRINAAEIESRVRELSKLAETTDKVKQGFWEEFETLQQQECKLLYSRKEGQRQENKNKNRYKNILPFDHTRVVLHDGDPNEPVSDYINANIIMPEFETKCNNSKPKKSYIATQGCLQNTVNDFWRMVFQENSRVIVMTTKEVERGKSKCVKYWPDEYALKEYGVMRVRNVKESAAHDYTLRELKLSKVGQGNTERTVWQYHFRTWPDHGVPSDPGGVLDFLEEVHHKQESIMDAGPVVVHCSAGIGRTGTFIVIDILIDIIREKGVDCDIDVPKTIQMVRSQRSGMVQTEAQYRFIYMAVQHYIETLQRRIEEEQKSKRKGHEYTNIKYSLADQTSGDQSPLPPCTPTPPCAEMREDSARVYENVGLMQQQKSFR
Test: SHP2 Phosphatase Assay (DiFMUP fluorescence)
Format: biochemical
Details: SHP2 0.2 nM pre-incubated with 100 nM bi-phosphorylated activating peptide; compound 1000-0.05 nM, 30 min pre-incubation; DiFMUP 20 µM, 45 min, room temperature; 10-concentration dose-response
Outline: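 SHP2 (0.2 nM) preactivated ≥10 min with 100 nM bis-phosphorylated peptide, then 30 min with compound (10 concentrations, 1000–0.05 nM) at room temperature, pH 7.2 HEPES buffer with DTT. DiFMUP (20 µM, added solution) reacted 45 min, pervanadate-stopped; fluorescence 350/450 nm. IC50 by 4-parameter logistic fit.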

Row | SMILES | IC50
1 | Cc1nc(N2CCC3(CC2)Cc2ncccc2[C@H]3N)c2ccnn2c1-c1cscn1 [Compound 160, (5S)-1'-(6-methyl-7-thiazol-4-yl-pyrazolo[1,5-a]pyrazin-4-yl)spiro[5,7-dihydrocyclopenta[b]pyridine-6,4'-piperidine]-5-amine hydrochloride] | 0.063 µM
2 | Cc1cc2c(cn1)CC1(CCN(c3nc(C)c(-c4ccccc4)n4nccc34)CC1)[C@@H]2N [Compound 114, (5S)-3-methyl-1'-(6-methyl-7-phenyl-pyrazolo[1,5-a]pyrazin-4-yl)spiro[5,7-dihydrocyclopenta[c]pyridine-6,4'-piperidine]-5-amine hydrochloride] | 0.01 µM
3 | N[C@@H]1c2cccnc2CC12CCN(c1ncc(-c3cccc(F)c3Cl)n3nccc13)CC2 [Compound 87, (5 S)-1'-[7-(2-chloro-3-fluorophenyl)pyrazolo[1,5-a]pyrazin-4-yl]spiro [5,7-dihydrocyclopenta[b]pyridine-6,4'-piperidine] -5-amine hydrochloride] | 0.022 µM
4 | Cc1nc(N2CCC3(CC2)[C@H](N)c2ccccc2N3C)c2ccnn2c1-c1ccccc1F [Compound 155, (3R)-1'-[7-(2-fluorophenyl)-6-methyl-pyrazolo[1,5-a]pyrazin-4-yl]-1-methyl-spiro [indoline-2,4'-piperidine]-3-amine] | 0.202 µM
5 | Cc1nccc(-c2c(C)nc(N3CCC4(CC3)Cc3ccc(F)cc3[C@H]4N)c3ccnn23)c1Cl [Compound 91, (1S)-1'-[7-(3-chloro-2-methyl-4-pyridyl)-6-methyl-pyrazolo[1,5-a]pyrazin-4-yl]-6-fluoro-spiro[indane-2,4'-piperidine]-1-amine hydrochloride] | 0.019 µM
6 | CCn1ncc(-c2c(C)nc(N3CCC4(CC3)Cc3ccc(OC)cc3[C@H]4N)c3ccnn23)c1C [Compound 125, (1S)-1'-[7-(1-ethyl-5-methyl-pyrazol-4-yl)-6-methyl-pyrazolo[1,5-a]pyrazin-4-yl]-6-methoxy-spiro [indane-2,4'-piperidine]-1-amine hydrochloride] | 0.009 µM
7 | Cc1nc(N2CCC3(CC2)Cc2ncccc2[C@H]3N)c2ccnn2c1-c1ccnn1C [Compound 29, (5S)-1'-[6-methyl-7-(2-methylpyrazol-3-yl)pyrazolo[1,5-a]pyrazin-4-yl]spiro[5,7-dihydrocyclopenta[b]pyridine-6,4'-piperidine]-5-amine hydrochloride] | 0.038 µM
8 | COc1ccc2c(c1)[C@@H](N)C1(CCN(c3nc(C)c(-c4cc(C(F)(F)F)nn4C)n4nccc34)CC1)C2 [Compound 127, (1S)-6-methoxy-1'-[6-methyl-7-[2-methyl-5-(trifluoromethyl)pyrazol-3-yl]pyrazolo[1,5-a]pyrazin-4-yl]spiro[indane-2,4'-pipendine]-1-amine hydrochloride] | 0.022 µM
9 | COc1c(F)cccc1-c1c(C)nc(N2CCC3(CC2)Cc2ncccc2[C@H]3N)c2ccnn12 [Compound 200] | 0.044 µM
10 | Cc1nc2c(s1)[C@@H](N)C1(CCN(c3nc(C)c(-c4cnn(C)c4C)n4nccc34)CC1)C2 [Compound 82, (6S)-1'-[7-(1,5-dimethylpyrazol-4-yl)-6-methyl-pyrazolo[1,5-a]pyrazin-4-yl]-2-methyl-spiro[4,6-dihydrocyclopenta[d]thiazole-5,4'-piperidine] -6-amine hydrochloride] | 0.027 µM
11 | Cc1nc(N2CCC3(CC2)Cc2ncccc2[C@H]3N)c2ccnn2c1-c1ccnc(C(C)C)c1Cl [Compound 7, (5S)-1'-[7-(3-chloro-2-isopropyl-4-pyridyl)-6-methyl-pyrazolo[1,5-a]pyrazin-4-yl]spiro[5,7-dihydrocyclopenta[b]pyridine-6,4'-piperidine] -5-amine hydrochloride] | 0.013 µM

Other lines, results leading:

Row | IC50 | SMILES
12 | 0.017 µM | Cc1nccc(-c2c(C)nc(N3CCC4(CC3)Oc3ccccc3[C@H]4N)c3ccnn23)c1Cl [Compound 128, (3R)-1'-[7-(3-chloro-2-methyl-4-pyridyl)-6-methyl-pyrazolo[1,5-a]pyrazin-4-yl]spiro[3H-benzofuran-2,4'-piperidine]-3-amine]
13 | 0.003 µM | CCc1nccc(-c2c(C)nc(N3CCC4(CC3)Cc3ncccc3[C@H]4N)c3ccnn23)c1Cl [Compound 42, (5S)-1'-[7-(3chloro-2-ethyl-4-pyridyl)-6-methyl-pyrazolo[1,5-a]pyrazin-4-yl]spiro[5,7-dihydrocyclopenta[b]pyridine-6,4'-piperidine]-5-amine]
14 | 0.026 µM | COc1nc2c(s1)[C@@H](N)C1(CCN(c3nc(C)c(-c4cnn(C)c4C)n4nccc34)CC1)C2 [Compound 220, (6S)-1'-[7-(1,5-Dimethylpyrazol-4-yl)-6-methyl-pyrazolo[1,5-a]pyrazin-4-yl]-2-methoxy-spiro[4,6-dihydrocyclopenta[d]thiazole-5,4'-piperidine]-6-amine]
15 | 0.021 µM | COc1ccc2c(n1)CC1(CCN(c3nc(C)c(-c4cccc(F)c4F)n4nccc34)CC1)[C@@H]2N [Compound 221, (5S)-1'-[7-(2,3-difluorophenyl)-6-methyl-pyrazolo[1,5-a]pyrazin-4-yl]-2-methoxy-spiro[5,7-dihydrocyclopenta[b]pyridine-6,4'-piperidine]-5-amine]
16 | 0.02 µM | Cc1nc(N2CCC3(CC2)Cc2ncccc2[C@H]3N)c2ccnn2c1-c1ccc2c(c1)CCN2C [Compound 171, (5S)-1'-[6-methyl-7-(1-methylindolin-5-yl)pyrazolo[1,5-a]pyrazin-4-yl]spiro[5,7-dihydrocyclopenta[b]pyridine-6,4'-piperidine]-5-amine]
17 | 0.004 µM | Cc1nc(N2CCC3(CC2)Cc2ncccc2[C@H]3N)c2ccnn2c1Sc1ccnc(N)c1Cl [Compound 232, (5S)-1'-[7-[(2-amino-3-chloro-4-pyridyl)sulfanyl]-6-methyl-pyrazolo[1,5-a]pyrazin-4-yl]spiro[5,7-dihydrocyclopenta[b]pyridine-6,4'-piperidine]-5-amine]
18 | 0.03 µM | CNc1cc(-c2c(C)nc(N3CCC4(CC3)Cc3ncccc3[C@H]4N)c3ccnn23)ccn1 [Compound 168, (5S)-1'-[6-methyl-7-[2-(methylamino)-4-pyridyl]pyrazolo[1,5-a]pyrazin-4-yl]spiro[5,7-dihydrocyclopenta[b]pyridine-6,4'-piperidine]-5-amine]
19 | 0.017 µM | CCn1cc(-c2c(C)nc(N3CCC4(CC3)Cc3ncccc3[C@H]4N)c3ccnn23)cn1 [Compound 48, (5S)-1'-[7-(1-ethylpyrazol-4-yl)-6-methyl-pyrazolo[1,5-a]pyrazin-4-yl]spiro[5,7-dihydrocyclopenta[b]pyridine-6,4'-piperidine]-5-amine]
20 | 0.006 µM | COc1nccc(-c2c(C)nc(N3CCC4(CC3)Cc3ncccc3[C@H]4N)c3ccnn23)c1Cl [Compound 108, (5S)-1'-[7-(3-chloro-2-methoxy-4-pyridyl)-6-methyl-pyrazolo[1,5-a]pyrazin-4-yl]spiro[5,7-dihydrocyclopenta[b]pyridine-6,4'-piperidine]-5-amine]
21 | 0.026 µM | Cc1nc(N2CCC3(CC2)Cc2ncccc2[C@H]3N)c2ccnn2c1-c1ccc2ncccc2c1 [Compound 202, (5S)-1'-[6-methyl-7-(6-quinolyl)pyrazolo[1,5-a]pyrazin-4-yl]spiro[5,7-dihydrocyclopenta[b]pyridine-6,4'-piperidine]-5-amine]
22 | 0.007 µM | Cc1nccc(-c2c(C)nc(N3CCC4(CC3)Cc3ccncc3[C@H]4N)c3ccnn23)c1F [Compound 140, (7S)-1'-[7-(3-fluoro-2-methyl-4-pyridyl)-6-methyl-pyrazolo[1,5-a]pyrazin-4-yl]spiro[5,7-dihydrocyclopenta[c]pyridine-6,4'-piperidine]-7-amine]
23 | 0.035 µM | Cc1nccc(-c2c(C)nc(N3CCC4(CC3)[C@H](N)c3ccccc3N4C)c3ccnn23)c1Cl [Compound 156, (3R)-1'-[7-(3-chloro-2-methyl-4-pyridyl)-6-methyl-pyrazolo[1,5-a]pyrazin-4-yl]-1-methyl-spiro[indoline-2,4'-piperidine]-3-amine]
24 | 0.007 µM | Cc1nccc(-c2c(C)nc(N3CCC4(CC3)Cc3cccnc3[C@H]4N)c3ccnn23)c1Cl [Compound 13, (7S)-1'-[7-(3-chloro-2-methyl-4-pyridyl)-6-methyl-pyrazolo[1,5-a]pyrazin-4-yl]spiro[5,7-dihydrocyclopenta[b]pyridine-6,4'-piperidine]-7-amine]
25 | 0.009 µM | Cc1nc(N2CCC3(CC2)Cc2ncccc2[C@H]3N)c2cc(CO)nn2c1-c1cccc(F)c1F [Compound 37, [4-[(5S)-5-aminospiro[5,7-dihydrocyclopenta[b]pyridine-6,4'-piperidine]-1'-yl]-7-(2,3-difluorophenyl)-6-methyl-pyrazolo[1,5-a]pyrazin-2-yl]methanol]
26 | 0.008 µM | Cc1nccc(Sc2c(C)nc(N3CCC4(CC3)Cc3ncccc3[C@H]4N)c3ccnn23)c1Cl [Compound 231, (S)-1'-(7-((3-chloro-2-methylpyridin-4-yl)thio)-6-methylpyrazolo[1,5-a]pyrazin-4-yl)-5,7-dihydrospiro[cyclopenta[b]pyridine-6,4'-piperidin]-5-amine]
